Measurements published in patent US10800782B2, “Inhibitors of cellular metabolic processes” (Agios Pharmaceuticals, Inc., priority 2016, dated 2020).

Molecular target: T1, MAT2A (Homo sapiens, UniProt P31153)
T1 construct: His6; made in house; host or cells: SF9 insect cells
Assay: MAT2A biochemical assay (colorimetric inorganic phosphate detection, PiColorLock)
Conditions: recombinant His6-tagged MAT2A 1 μg/ml; 60 minutes preincubation at 25° C.; L-Met 80 μM, ATP 100 μM; 60 minutes reaction; read at 623 nm; read-out: MAT2A Inhibition Score
In short: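 Colorimetric malachite green readout of phosphate released when MAT2A turns over L-Met and ATP, after 60 min at room temperature. Enzyme: SF9-expressed His6-tagged MAT2A at 1 μg/ml. Buffer: Tris pH 8.0, 50 mM KCl, 15 mM MgCl2, 300 uM EDTA, 0.005% BSA. Compounds tested as ten-point three-fold dilutions.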

T1 sequence (P31153 whole entry): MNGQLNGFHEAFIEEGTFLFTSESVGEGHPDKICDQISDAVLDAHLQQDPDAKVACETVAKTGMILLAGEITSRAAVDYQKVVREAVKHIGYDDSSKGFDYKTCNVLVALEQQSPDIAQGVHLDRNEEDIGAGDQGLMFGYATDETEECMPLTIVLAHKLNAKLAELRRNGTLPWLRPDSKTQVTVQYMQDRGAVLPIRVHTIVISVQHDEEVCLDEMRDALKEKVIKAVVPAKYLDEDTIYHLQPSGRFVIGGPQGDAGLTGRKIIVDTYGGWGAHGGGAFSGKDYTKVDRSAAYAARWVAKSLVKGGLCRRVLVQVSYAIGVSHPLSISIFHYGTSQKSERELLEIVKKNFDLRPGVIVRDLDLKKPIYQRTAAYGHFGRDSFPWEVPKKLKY

Row | SMILES | IC50 [µM]
1 | Cc1[nH]c2c(-c3ccccc3)c(-c3ccccc3)nn2c(=O)c1-c1ccc2ncnc(N)c2c1 [Compound 330, 6-(4-aminoquinazolin-6-yl)-5-methyl-2,3-diphenylpyrazolo[1,5-a]pyrimidin-7(4H)-one] | 0.1 to 1
2 | COc1ccc(-c2c(Nc3cc(N)ncn3)[nH]c3c(-c4ccccc4)c(-c4ccccc4)nn3c2=O)cc1 [Compound 117, 5-((6-aminopyrimidin-4-yl)amino)-6-(4-methoxyphenyl)-2,3-diphenylpyrazolo[1,5-a]pyrimidin-7(4H)-one] | < 0.1
3 | COc1ccc(-c2c(N/C(N)=N/O)[nH]c3c(-c4ccccc4)c(-c4ccccc4)nn3c2=O)cc1 [Compound 200, (E)-2-hydroxy-1-(6-(4-methoxyphenyl)-7-oxo-2,3-diphenyl-4,7-dihydropyrazolo[1,5-a]pyrimidin-5-yl)guanidine] | < 0.1
4 | Cc1[nH]c2c(-c3ccccc3)c(-c3cc[nH]c3)nn2c(=O)c1-c1ccc2ncccc2c1 [Compound 252, 5-methyl-3-phenyl-2-(1H-pyrrol-3-yl)-6-(quinolin-6-yl)pyrazolo[1,5-a]pyrimidin-7(4H)-one] | < 0.1
5 | Cc1[nH]c2c(C3=CCCCC3)c(-c3ccccc3)nn2c(=O)c1-c1ccc(OC(=O)[C@@H](N)C(C)C)cc1 [Compound 294, (S)-4-(3-cyclohexenyl-5-methyl-7-oxo-2-phenyl-4,7-dihydropyrazolo[1,5-a]pyrimidin-6-yl)phenyl 2-amino-3-methylbutanoate] | < 0.1
6 | Cc1[nH]c2c(C3=CCC(F)(F)CC3)c(-c3ccccc3)nn2c(=O)c1-c1ccc2ncccc2c1 [Compound 265, 3-(4,4-difluorocyclohex-1-en-1-yl)-5-methyl-2-phenyl-6-(quinolin-6-yl)pyrazolo[1,5-a]pyrimidin-7(4H)-one] | < 0.1
7 | O=c1c(-c2ccc3ncccc3c2)c[nH]c2c(-c3ccccc3)c(-c3ccccc3)nn12 [Compound 244, 2,3-diphenyl-6-(quinolin-6-yl)pyrazolo[1,5-a]pyrimidin-7(4H)-one] | < 0.1
8 | COc1ccc(-c2c(Nc3cc(O)ccn3)[nH]c3c(-c4ccccc4)c(-c4ccccc4)nn3c2=O)cc1 [Compound 109, 5-((4-hydroxypyridin-2-yl)amino)-6-(4-methoxyphenyl)-2,3-diphenylpyrazolo[1,5-a]pyrimidin-7(4H)-one] | < 0.1
9 | COc1ccc(-c2c(Nc3ncnc(N)n3)[nH]c3c(C4=CCCCC4)c(-c4ccccc4)nn3c2=O)cc1 [Compound 164, 5-((4-amino-1,3,5-triazin-2-yl)amino)-3-(cyclohex-1-en-1-yl)-6-(4-methoxyphenyl)-2-phenylpyrazolo[1,5-a]pyrimidin-7(4H)-one] | < 0.1
10 | COc1ccc(-c2c(Oc3ccccc3)[nH]c3c(-c4ccccc4)c(-c4ccccc4)nn3c2=O)cc1 [Compound 355, 6-(4-methoxyphenyl)-5-phenoxy-2,3-diphenylpyrazolo[1,5-a]pyrimidin-7(4H)-one] | 1 to 10
11 | COc1ccc(-c2c(Nc3cccc(C#N)n3)[nH]c3c(-c4ccccc4)c(-c4ccccc4)nn3c2=O)cc1 [Compound 111, 6-((6-(4-methoxyphenyl)-7-oxo-2,3-diphenyl-4,7-dihydropyrazolo[1,5-a]pyrimidin-5-yl)amino)picolinonitrile] | < 0.1
12 | COc1ccc(-c2c(Nc3nccnc3O)[nH]c3c(-c4ccccc4)c(-c4ccccc4)nn3c2=O)cc1 [Compound 127, 5-((3-hydroxypyrazin-2-yl)amino)-6-(4-methoxyphenyl)-2,3-diphenylpyrazolo[1,5-a]pyrimidin-7(4H)-one] | < 0.1
13 | NCCn1cc(-c2ccc3ncccc3c2)c(=O)n2nc(-c3ccccc3)c(-c3ccccc3)c12 [Compound 353, 4-(2-aminoethyl)-2,3-diphenyl-6-(quinolin-6-yl)pyrazolo[1,5-a]pyrimidin-7(4H)-one] | 1 to 10
14 | CNc1ncnc(Nc2[nH]c3c(-c4ccccc4)c(-c4ccccc4)nn3c(=O)c2-c2ccc(OC)cc2)n1 [Compound 135, 6-(4-methoxyphenyl)-5-((4-(methylamino)-1,3,5-triazin-2-yl)amino)-2,3-diphenylpyrazolo[1,5-a]pyrimidin-7(4H)-one] | < 0.1
15 | COc1ccc(-c2c(Nc3ccc([N+](=O)[O-])cn3)[nH]c3c(-c4ccccc4)c(-c4ccccc4)nn3c2=O)cc1 [Compound 107, 6-(4-methoxyphenyl)-5-((5-nitropyridin-2-yl)amino)-2,3-diphenylpyrazolo[1,5-a]pyrimidin-7(4H)-one] | < 0.1

Second part, the compound after the results:

Row | IC50 [µM] | SMILES
16 | < 0.1 | Cc1[nH]c2c(-c3ccccc3)c(-c3ccccc3)nn2c(=O)c1-c1ccc2nc(C(=O)O)ccc2c1 [Compound 246, 6-(5-methyl-7-oxo-2,3-diphenyl-4,7-dihydropyrazolo[1,5-a]pyrimidin-6-yl) quinoline-2-carboxylic Acid]
17 | < 0.1 | COc1ccc(-c2c(Nc3ccncn3)[nH]c3c(C4=CCCCC4)c(-c4ccccc4)nn3c2=O)cc1 [Compound 155, 3-(cyclohex-1-en-1-yl)-6-(4-methoxyphenyl)-2-phenyl-5-(pyrimidin-4-ylamino)pyrazolo[1,5-a]pyrimidin-7(4H)-one]
18 | < 0.1 | O=c1c(-c2ccc(O)cc2)c(Nc2cc[nH]n2)[nH]c2c(-c3ccccc3)c(-c3ccccc3)nn12 [Compound 193, 5-((1H-pyrazol-3-yl)amino)-6-(4-hydroxyphenyl)-2,3-diphenylpyrazolo[1,5-a]pyrimidin-7(4H)-one]
19 | < 0.1 | COc1ccc(-c2c(CO)n(C)c3c(-c4ccccc4)c(-c4ccccc4)nn3c2=O)cc1 [Compound 249, 5-(hydroxymethyl)-6-(4-methoxyphenyl)-4-methyl-2,3-diphenylpyrazolo[1,5-a]pyrimidin-7(4H)-one]
20 | < 0.1 | Cc1[nH]c2c(-c3ccccc3)c(-c3ccc(N)cc3)nn2c(=O)c1-c1ccc2ncccc2c1 [Compound 250, 2-(4-aminophenyl)-5-methyl-3-phenyl-6-(quinolin-6-yl)pyrazolo[1,5-a]pyrimidin-7(4H)-one]
21 | < 0.1 | Cc1c(-c2ccc(O)cc2)c(=O)n2nc(-c3ccccc3)c(-c3cccs3)c2n1C [Compound 271, 6-(4-hydroxyphenyl)-4,5-dimethyl-2-phenyl-3-(thiophen-2-yl)pyrazolo[1,5-a]pyrimidin-7(4H)-one]
22 | < 0.1 | COc1ccc(-c2c(C)[nH]c3c(N4CCCCC4)c(-c4ccccc4)nn3c2=O)cn1 [Compound 358, 6-(6-methoxypyridin-3-yl)-5-methyl-2-phenyl-3-(piperidin-1-yl)pyrazolo[1,5-a]pyrimidin-7(4H)-one]
23 | < 0.1 | COc1ccc(-c2c(Nc3ccc(C#N)cn3)[nH]c3c(-c4ccccc4)c(-c4ccccc4)nn3c2=O)cc1 [Compound 104, 6-((6-(4-methoxyphenyl)-7-oxo-2,3-diphenyl-4,7-dihydropyrazolo[1,5-a]pyrimidin-5-yl)amino)nicotinonitrile]
24 | < 0.1 | O=c1c(-c2ccc3nccnc3c2)c(CO)[nH]c2c(C3=CCCCC3)c(-c3ccccc3)nn12 [Compound 231, 3-(cyclohex-1-en-1-yl)-5-(hydroxymethyl)-2-phenyl-6-(quinoxalin-6-yl)pyrazolo[1,5-a]pyrimidin-7(4H)-one]
25 | < 0.1 | COc1ccc(-c2c(Nc3cnc(C#N)cn3)[nH]c3c(-c4ccccc4)c(-c4ccccc4)nn3c2=O)cc1 [Compound 129, 5-(6-(4-methoxyphenyl)-7-oxo-2,3-diphenyl-4,7-dihydropyrazolo[1,5-a]pyrimidin-5-ylamino)pyrazine-2-carbonitrile]
26 | 1 to 10 | Cc1[nH]c2c(-c3ccccc3)c(-c3ccc([N+](=O)[O-])cc3)nn2c(=O)c1-c1ccc2ncccc2c1 [Compound 251, 5-methyl-2-(4-nitrophenyl)-3-phenyl-6-(quinolin-6-yl)pyrazolo[1,5-a]pyrimidin-7(4H)-one]
27 | < 0.1 | COc1ccc(-c2c(CO)[nH]c3c(-c4ccccc4)c(-c4ccccc4)nn3c2=O)cc1 [Compound 221, 5-(hydroxymethyl)-6-(4-methoxyphenyl)-2,3-diphenylpyrazolo[1,5-a]pyrimidin-7(4H)-one]
28 | < 0.1 | COc1ccc(-c2c(Nc3ccon3)[nH]c3c(C4=CCCCC4)c(-c4ccccc4)nn3c2=O)cc1 [Compound 165, 3-(cyclohex-1-en-1-yl)-5-(isoxazol-3-ylamino)-6-(4-methoxyphenyl)-2-phenylpyrazolo[1,5-a]pyrimidin-7(4H)-one]
29 | < 0.1 | Cc1[nH]c2c(N3CCCCC3)c(-c3ccccc3)nn2c(=O)c1-c1ccc2ncccc2c1 [Compound 206, 5-methyl-2-phenyl-3-(piperidin-1-yl)-6-(quinolin-6-yl)pyrazolo[1,5-a]pyrimidin-7(4H)-one]
30 | < 0.1 | COc1ccc(-c2c(Nc3ccc(F)cn3)[nH]c3c(-c4ccccc4)c(-c4ccccc4)nn3c2=O)cc1 [Compound 105, 5-((5-fluoropyridin-2-yl)amino)-6-(4-methoxyphenyl)-2,3-diphenylpyrazolo[1,5-a]pyrimidin-7(4H)-one]
31 | < 0.1 | COc1ccc(-c2c(Nc3ncccc3O)[nH]c3c(-c4ccccc4)c(-c4ccccc4)nn3c2=O)cc1 [Compound 113, 5-(3-hydroxypyridin-2-ylamino)-6-(4-methoxy-phenyl)-2,3-diphenylpyrazolo[1,5-a]pyrimidin-7(4H)-one]
32 | < 0.1 | COc1ccc(-c2c(Nc3cnncn3)[nH]c3c(-c4ccccc4)c(-c4ccccc4)nn3c2=O)cc1 [Compound 133, 5-((1,2,4-triazin-5-yl)amino)-6-(4-methoxyphenyl)-2,3-diphenylpyrazolo[1,5-a]pyrimidin-7(4H)-one]
33 | < 0.1 | COc1ccc(-c2c(Nc3ncc(Cl)cn3)[nH]c3c(-c4ccccc4)c(-c4ccccc4)nn3c2=O)cc1 [Compound 122, 5-((5-chloropyrimidin-2-yl)amino)-6-(4-methoxyphenyl)-2,3-diphenylpyrazolo[1,5-a]pyrimidin-7(4H)-one]
